Earlier results on one compound are cited in US12357627B2, “Pharmaceutical compositions of cabozantinib” (AZURITY PHARMACEUTICALS, INC., priority 2021, dated 2025).

Values after ≈ are worked out from the molar mass of the structure shown. Read-outs that look alike come from different tables or passages of the source.

For series [1] the following is noted: mass balance study.
For series [2] the following is noted: high-fat meal relative to fasted conditions, healthy subjects, single oral dose.

As for `COc1cc2nccc(Oc3ccc(NC(=O)C4(C(=O)Nc5ccc(F)cc5)CC4)cc3)c2cc1OC` [Cabozantinib], in series [1], the “administered cabozantinib renally excreted” value is recorded as “at least 27%”. Besides, in series [2], the “increase of AUC” value is 57%. The “increase of Cmax” value in series [2] was 41%. Besides, the solubility entry was “practically insoluble” (at pH>4), 110 µg/mL (≈ 219 µM) (in 0.01N HCl) and “practically insoluble” (in water).

A word on the solubility: it is the concentration that dissolves in the medium under given conditions.
